Columns and labels:
[1] = tested on: SGC-7901, A875 and HepG2 cell lines; test: MTT in vitro cytotoxicity, tested cancer cell lines together; assay type: cell-based, human; conditions: for dose-response of cell growth inhibition: SGC-7901, A875 and HepG2, Figure 4; for IC50: Homo sapiens, span over SGC-7901, A875, HepG2, read-out: range of IC50 value over the tested cancer cell lines
Method: (§1) Assays were performed in triplicate on three independent experiments.

[2] = in vitro; conditions: human
Method: as §1

[3] = tested on: A875 (Human melanoma cell line); test: MTT in vitro cytotoxicity, A875; conditions: A875, 72 h, read-out: In vitro cytotoxicity IC50
Method: (§2) After removal of the growth medium, six serial dilutions of each tested compound in 200 µL test medium were added. Plates were incubated at 37 °C in a humidified atmosphere containing 5% CO2. After 72 h of exposure, the culture medium was removed and 30 µL of the MTT solution (5 mg/mL in PBS) was added to each well. The plate was further incubated for 4 h to allow MTT formazan formation. To dissolve the resulting MTT formazan, 50 µL of DMSO was added to each well, followed by thorough mixing with a microplate shaker. Absorbance at 570 nm was measured on a microplate reader (Thermo Scientific, MK3). […] Assays were performed in triplicate on three independent experiments.

[4] = tested on: SGC-7901 (Human gastric cancer cell line); test: MTT in vitro cytotoxicity, SGC-7901; conditions: SGC-7901, 72 h, read-out: In vitro cytotoxicity IC50
Method: as §2

[5] = tested on: HepG2 (Human hepatocellular liver carcinoma cell line); test: MTT in vitro cytotoxicity, HepG2; conditions: HepG2, 72 h, read-out: In vitro cytotoxicity IC50
Method: as §2

Row | Compound | dose-response of cell growth inhibition [1] | IC50 [2] [µM] | IC50 [3] [µM] | IC50 [4] [µM] | IC50 [5] [µM] | IC50 ([2]; HL-7702 normal liver cells) [µM] | IC50 [1] [µM]
1 | C[C@]12CC[C@H](O)CC1CC[C@@H]1[C@@H]2CC[C@]2(C)C(=NN=C3C(=O)Nc4ccc(F)cc43)CC[C@@H]12 (stereo partly drawn) [3b, 5-Fluoro-3-(((3S,8R,9S,10S,13S,14S)-3-hydroxy-10,13-dimethyldodecahydro-1H-cyclopenta[a]phenanthren-17(2H,10H,14H)-ylidene)hydrazono)indolin-2-one] | dose-dependent manner | 5.49 ± 1.33 | 8.58 ± 1.64 | 6.67 ± 1.77 | 6.12 ± 1.79 |  | 
2 | C[C@]12CC[C@H](O)CC1CC[C@@H]1[C@@H]2CC[C@]2(C)C(=NN=C3C(=O)Nc4ccccc43)CC[C@@H]12 (stereo partly drawn) [3a, 3-(((3S,8R,9S,10S,13S,14S)-3-Hydroxy-10,13-dimethyldodecahydro-1H-cyclopenta[a]phenanthren-17(2H,10H,14H)-ylidene)hydrazono)indolin-2-one] |  | 5.65 ± 1.59 | 9.51 ± 1.34 | 7.69 ± 2.54 | 6.72 ± 1.59 |  | 
3 | C[C@]12CC[C@@H](O)C[C@@H]1CC[C@@H]1[C@@H]2CC[C@]2(C)C(=NN=C3C(=O)Nc4ccc(Cl)cc43)CC[C@@H]12 [6c, 5-Chloro-3-(((3R,5S,8R,9S,10S,13S,14S)-3-hydroxy-10,13-dimethyldodecahydro-1H-cyclopenta[a]phenanthren-17(2H,10H,14H)-ylidene)hydrazono)indolin-2-one] | dose-dependent manner | 6.36 ± 1.37 | 8.78 ± 0.64 | 6.83 ± 2.01 | 4.84 ± 1.05 |  | 
4 | C[C@]12CC[C@@H](O)C[C@@H]1CC[C@@H]1[C@@H]2CC[C@]2(C)C(=O)CC[C@@H]12 [Androsterone] |  | > 100 | > 100 | > 100 | > 100 |  | 
5 | C[C@]12CC[C@H](O)C[C@@H]1CC[C@@H]1[C@@H]2CC[C@]2(C)C(=O)CC[C@@H]12 [Epiandrosterone] |  | 91.2 ± 12.3 | 63.6 ± 13.2 | 69.8 ± 8.47 | 36.7 ± 10.6 |  | 
6 | C[C@]12CC[C@@H](O)C[C@@H]1CC[C@@H]1[C@@H]2CC[C@]2(C)C(=NN=C3C(=O)Nc4ccc(Br)cc43)CC[C@@H]12 [6d, 5-Bromo-3-(((3R,5S,8R,9S,10S,13S,14S)-3-hydroxy-10,13-dimethyldodecahydro-1H-cyclopenta[a]phenanthren-17(2H,10H,14H)-ylidene)hydrazono)indolin-2-one] |  | 4.4 ± 0.68 | 8.08 ± 0.51 | 7.14 ± 1.41 | 6.1 ± 2.09 |  | 
7 | C[C@]12CC[C@H](O)CC1CC[C@@H]1[C@@H]2CC[C@]2(C)C(=NN=C3C(=O)Nc4cc(F)ccc43)CC[C@@H]12 (stereo partly drawn) [3h, 6-Fluoro-3-(((3S,8R,9S,10S,13S,14S)-3-hydroxy-10,13-dimethyldodecahydro-1H-cyclopenta[a]phenanthren-17(2H,10H,14H)-ylidene)hydrazono)indolin-2-one] |  | 7.87 ± 2.04 | 6.85 ± 1.99 | 7.22 ± 1.17 | 4.85 ± 0.84 |  | 
8 | O=c1[nH]cc(F)c(=O)[nH]1 [5-FU, 5-Fluorouracil, reference compound] |  |  | 65.3 ± 7.3 | 62 ± 8.38 | 63.2 ± 12.6 | 86 ± 9.61 | 
9 | C[C@]12CC[C@H](O)CC1CC[C@@H]1[C@@H]2CC[C@]2(C)C(=NN=C3C(=O)Nc4ccc(Br)cc43)CC[C@@H]12 (stereo partly drawn) [3d, 5-Bromo-3-(((3S,8R,9S,10S,13S,14S)-3-hydroxy-10,13-dimethyldodecahydro-1H-cyclopenta[a]phenanthren-17(2H,10H,14H)-ylidene)hydrazono)indolin-2-one] |  | 14.1 ± 3.79 | 11.6 ± 2.84 | 8.43 ± 2.23 | 8.29 ± 2.41 |  | 
10 | C[C@]12CC[C@@H](O)C[C@@H]1CC[C@@H]1[C@@H]2CC[C@]2(C)C(=NN=C3C(=O)Nc4cc(F)ccc43)CC[C@@H]12 [6h, 6-Fluoro-3-(((3R,5S,8R,9S,10S,13S,14S)-3-hydroxy-10,13-dimethyldodecahydro-1H-cyclopenta[a]phenanthren-17(2H,10H,14H)-ylidene)hydrazono)indolin-2-one] |  | 12.8 ± 2.79 | 7.71 ± 2.13 | 9.2 ± 1.68 | 5.41 ± 1.44 |  | 
11 | Cc1ccc2c(c1)C(=NN=C1CC[C@H]3[C@@H]4CCC5C[C@@H](O)CC[C@]5(C)[C@H]4CC[C@]13C)C(=O)N2 (stereo partly drawn) [3f, 3-(((3S,8R,9S,10S,13S,14S)-3-Hydroxy-10,13-dimethyldodecahydro-1H-cyclopenta[a]phenanthren-17(2H,10H,14H)-ylidene)hydrazono)-5-methylindolin-2-one] |  | 6.08 ± 0.54 | 6.01 ± 1.95 | 7.06 ± 1.27 | 6.91 ± 0.58 |  | 
12 | C[C@]12CC[C@@H](O)C[C@@H]1CC[C@@H]1[C@@H]2CC[C@]2(C)C(=NN=C3C(=O)Nc4ccccc43)CC[C@@H]12 [6a, 3-(((3R,5S,8R,9S,10S,13S,14S)-3-Hydroxy-10,13-dimethyldodecahydro-1H-cyclopenta[a]phenanthren-17(2H,10H,14H)-ylidene)hydrazono)indolin-2-one] |  | 8.29 ± 2.24 | 21.7 ± 4.82 | 13.8 ± 2.65 | 20.4 ± 6.69 |  | 
13 | C[C@]12CC[C@@H](O)C[C@@H]1CC[C@@H]1[C@@H]2CC[C@]2(C)C(=NN=C3C(=O)Nc4ccc(I)cc43)CC[C@@H]12 [6e, 3-(((3R,5S,8R,9S,10S,13S,14S)-3-Hydroxy-10,13-dimethyldodecahydro-1H-cyclopenta[a]phenanthren-17(2H,10H,14H)-ylidene)hydrazono)-5-iodoindolin-2-one] |  | 18.5 ± 1 | 19.7 ± 1.89 | 17.1 ± 3.68 | 8.99 ± 3.13 |  | 8 to 20
14 | C[C@]12CC[C@@H](O)C[C@@H]1CC[C@@H]1[C@@H]2CC[C@]2(C)C(=NN=C3C(=O)Nc4ccc(F)cc43)CC[C@@H]12 [6b, 5-Fluoro-3-(((3R,5S,8R,9S,10S,13S,14S)-3-hydroxy-10,13-dimethyldodecahydro-1H-cyclopenta[a]phenanthren-17(2H,10H,14H)-ylidene)hydrazono)indolin-2-one] |  | 7.09 ± 1.57 | 42.2 ± 8.19 | 9.51 ± 0.49 | 32.3 ± 4.21 |  | 
15 | C[C@]12CC[C@@H](O)C[C@@H]1CC[C@@H]1[C@@H]2CC[C@]2(C)C(=NN=C3C(=O)Nc4ccc([N+](=O)[O-])cc43)CC[C@@H]12 [6g, 3-(((3R,5S,8R,9S,10S,13S,14S)-3-Hydroxy-10,13-dimethyldodecahydro-1H-cyclopenta[a]phenanthren-17(2H,10H,14H)-ylidene)hydrazono)-5-nitroindolin-2-one] | dose-dependent manner | 11.2 ± 3.05 | 3.85 ± 1.44 | 6.4 ± 1.74 | 4.31 ± 0.92 |  | 3.85 to 6.4
16 | Cc1ccc2c(c1)C(=NN=C1CC[C@H]3[C@@H]4CC[C@H]5C[C@H](O)CC[C@]5(C)[C@H]4CC[C@]13C)C(=O)N2 [6f, 3-(((3R,5S,8R,9S,10S,13S,14S)-3-Hydroxy-10,13-dimethyldodecahydro-1H-cyclopenta[a]phenanthren-17(2H,10H,14H)-ylidene)hydrazono)-5-methylindolin-2-one] |  | 12.5 ± 4.36 | 8.25 ± 1.97 | 9.12 ± 1.61 | 4.85 ± 1.07 |  | 
17 | C[C@]12CC[C@H](O)CC1CC[C@@H]1[C@@H]2CC[C@]2(C)C(=NN=C3C(=O)Nc4ccc(Cl)cc43)CC[C@@H]12 (stereo partly drawn) [3c, 5-Chloro-3-(((3S,8R,9S,10S,13S,14S)-3-hydroxy-10,13-dimethyldodecahydro-1H-cyclopenta[a]phenanthren-17(2H,10H,14H)-ylidene)hydrazono)indolin-2-one] | dose-dependent manner | 5.01 ± 1.37 | 7.92 ± 1.95 | 4.92 ± 1.13 | 2.39 ± 0.36 |  | 
18 | C[C@]12CC[C@H](O)CC1CC[C@@H]1[C@@H]2CC[C@]2(C)C(=NN=C3C(=O)Nc4ccc(I)cc43)CC[C@@H]12 (stereo partly drawn) [3e, 3-(((3S,8R,9S,10S,13S,14S)-3-Hydroxy-10,13-dimethyldodecahydro-1H-cyclopenta[a]phenanthren-17(2H,10H,14H)-ylidene)hydrazono)-5-iodoindolin-2-one] |  | 14 ± 2.83 | 23.8 ± 4.39 | 21.7 ± 3.86 | 18.6 ± 4.79 |  | 
19 | C[C@]12CC[C@H](O)CC1CC[C@@H]1[C@@H]2CC[C@]2(C)C(=NN=C3C(=O)Nc4ccc([N+](=O)[O-])cc43)CC[C@@H]12 (stereo partly drawn) [3g, 3-(((3S,8R,9S,10S,13S,14S)-3-Hydroxy-10,13-dimethyldodecahydro-1H-cyclopenta[a]phenanthren-17(2H,10H,14H)-ylidene)hydrazono)-5-nitroindolin-2-one] |  | 33.4 ± 6.15 | 26.2 ± 4.59 | 11.9 ± 2.45 | 19.4 ± 3.37 |  | 

Reference: publication PMC6735358, “Synthesis and bioevaluation of novel steroidal isatin conjugates derived from epiandrosterone/androsterone” (Journal of Enzyme Inhibition and Medicinal Chemistry, 2019)
